In assay [1] the test system is GH3 cells stably expressing HER2CA. Nature of the assay: Realtime PCR of PRL and GH mRNA in GH3 stable transfectants. Format: cell-based, rat. The following applies: for suppression of PRL expression: Her2CA-GH3 cells. Here is the method:
A. […] C. GH and PRL secretion in the culture medium determined by RIA. Hormone secretion levels were normalized for cell numbers, Values are mean±SEM. *p<0.05, **p<0.01. […] GH3 rat lacto-somatotroph tumor cells secreting PRL and GH were purchased from the American Type Culture Collection. HER2CA cells were generated by transfection with […]) purchased from Addgene (Addgene plasmid 16259). Stable colonies were selected in the presence of 500 μg/ml G418 (Invitrogen). A vector control cell line pcDNA3 was simultaneously established by transfecting pcDNA3 that lacked inserted cDNA. […] After synchronization by serum starvation (medium containing 0.2% bovine serum albumin for 24 h), cells with treatment agents was grown in fresh serum-depleted medium (0.2% bovine serum albumin), and samples collected at the indicated times. Total RNA was extracted with Trizol reagent (Invitrogen) according to instructions of the manufacturer. The amount and the integrity of RNA were assessed by measurement of absorbance at 260 and 280 nm. Total RNA was reverse-transcribed into first-strand cDNA using iScript cDNA synthesis kit (Bio-Rad Laboratories, Inc.) according to the manufacturer. Quantitative PCR reactions were carried out in the iQ5 Multicolor Real-time PCR Detection System (Bio-Rad Laboratories, Inc.) as described (8). […] Primer sequences (Invitrogen) were [NT] rRNA forward ([…] rRNA reverse ([NT] (human (3-actin [NT] (human (3-actin […]).

The test system of assay [2] is human prolactinoma cells. Put plainly: RIA of PRL in culture media of primary human prolactinoma cell cultures. Format: cell-based. The following applies: for suppression of PRL secretion into the culture medium: 24 hr. Here is the method:
(§1) A, B, D, and E. After trans-sphenoidal surgery of human prolactinomas, tumor cells were cultured. […] PRL levels in culture media were measured using RIA (B). H&E and PRL staining of tumor and confocal immunocytochemistry of EGFR and HER2 (Tumor A) (C), or for Tumor B (F). Magnification of these figures was 100×. […] PRL levels in culture media were measured using RIA (E). Prolactinoma cells (Tumor B) were treated with U0126 (0.1-5 μM) for 24 hr, and Realtime PCR of PRL performed (G).
(§2) Human prolactinoma tissues were obtained at the time of surgery (Pituitary Center, Cedars-Sinai Medical Center) and transferred in 0.3% BSA containing DMEM according to an IRB-approved protocol. After washing with medium, tumor tissues were chopped with a sterile scalpel into approximately 1-2 mm pieces. Tissues were rinsed and digested with DMEM containing 0.3% BSA, 0.35% collagenase, and 0.15% hyaluronidase at 37° C. for 30 min The mixture was centrifuged at 1,500 rpm for 5 min at 4° C., and the cell pellet resuspended in an appropriate volume of culture medium containing 10% FBS and antibiotics in 48 well plates. After 24 hr incubation with serum depleted starvation medium (DMEM with 0.3% BSA), treatment agents were added with fresh serum-depleted medium (0.3% BSA), and medium collected for RIA. RNA was extracted after 24 hr treatment. Medium was also collected at baseline. To normalize for cell number effect, the PRL value of treated medium was divided by that of pre-treatment starvation medium to obtain a treated value for each well (n=4).

Assay [3] deals with human prolactinoma cells. Nature of the assay: Realtime PCR of PRL in primary human prolactinoma cell cultures. Format: cell-based. The following applies: for suppression of PRL mRNA levels: 24 hr. Here is the method: as §1
Total RNA was extracted with Trizol reagent (Invitrogen) according to instructions of the manufacturer. The amount and the integrity of RNA were assessed by measurement of absorbance at 260 and 280 nm. Total RNA was reverse-transcribed into first-strand cDNA using iScript cDNA synthesis kit (Bio-Rad Laboratories, Inc.) according to the manufacturer. Quantitative PCR reactions were carried out in the iQ5 Multicolor Real-time PCR Detection System (Bio-Rad Laboratories, Inc.) as described (8). Certified RT^2 primer assays for rat GH, PRL and human PRL were purchased from SuperArray. Primer sequences (Invitrogen) were 5′-[…]-3′ (18S rRNA forward (F)), 5′-[…]-3′ (18S rRNA reverse (R)), 5′-[…]-3′ (human (3-actin F), 5′-[…]-3′ (human (3-actin R), 5′-[…]-3′ (human GAPDH F), 5′-[…]-3′ (human GAPDH R).
as §2

Assay [4] deals with GH3 cells stably expressing HER2CA. Nature of the assay: Cell proliferation assay (cell counts). The class given is cell-based, rat. The following applies: for cell number: HER2CA GH3 cells, 0.1-10 μM, 24 h treatment. Here is the method:
pcDNA3 and HER2CA cells were plated at a density of 2×10^4 per well in 12-well plates or 4×10^3 cells per well in 96-well plates with growth medium. For 12-well plates, cells were counted by hemocytometer at the indicated times. For 96-well plates, premixed WST-1 cell proliferation reagent (Roche Molecular Biochemicals) was added (1:10) at the indicated times and incubated for 4 h at 37° C. in a humidified atmosphere maintained at 5% CO2, and absorbance was then measured at 450 nm. WST-1 is a colorimetric assay for quantification of cell proliferation and cell viability, based on the cleavage of the tetrazolium salt by mitochondrial dehydrogenases in viable cells.

Another assay concerns HER2CA GH3 tumors. Nature of the assay: HER2CA GH3 subcutaneous tumors in Wistar-Furth rats. The class given is in vivo, rat. The following applies: for suppression of postmortem tumor weight / suppression of serum PRL levels / HER2CA tumor volume: Wistar-Furth rats; for suppression of postmortem tumor weight / suppression of serum PRL levels: 100 mg/kg daily oral gavage; for HER2CA tumor volume: 100 mg/kg daily oral gavage from day 3 after inoculation, vehicle 924±48. Here is the method:
B-C. […] (B). Tumor weights were measured after euthanasia (C). Serum PRL levels were measured by RIA (D), and ex vivo Realtime PCR performed (E). Tumor volumes were calculated using the formula, π/6×large diameter×small diameter^2.
In accordance with Institutional Animal Care and Use Committee guidelines, 4-5 wk old female Wistar-Furth rats (Harlan Sprague Dawley, Inc.) were inoculated with pcDNA3 (n=6) or HER2CA (n=6) cells (3×10^6 cells/rat). Rats were fed with a commercial pelleted diet ad libitum and tap water. Tumor volumes were measured with a caliper and calculated using the formula, π/6×large diameter×small diameter^2 as previously described (8). […] 500 μl blood was collected twice for hormone assessment (before inoculation, 2 days after inoculation) by retro-orbital bleeding. This procedure was performed under isoflurane inhalational anesthesia via a nose cone connected to a rodent anesthesia machine (Kent Scientific Corporation). On the last treatment day (day 7), rats were euthanized within 3 h of drug administration. Cardiac blood was collected with 18-gauge syringes and tumors excised and weighed. Fragments of each tumor were fixed in formalin and embedded in paraffin for immunohistochemical staining, preserved in RNA later solution (Ambion) for subsequent RNA extraction and frozen in liquid nitrogen for subsequent protein extraction.
To evaluate in vivo effects of HER2 overexpression on lactosomatotroph tumor growth, HER2CA or pcDNA3 transfectants were inoculated subcutaneously into female Wistar-Furth rats. […] Next, the effects of lapatinib administration on tumor growth and hyperprolactinemia were examined. […] After euthanasia, tumors were excised and immediately weighed and processed.

Where [5] appears, read: Tumor A, lapatinib 0.1-10 μM or gefitinib 10 μM.
The mark [6] stands for this setting: human primary prolactinoma tumor cell cultures, tumor not named.

For `COc1cc2ncnc(Nc3ccc(F)c(Cl)c3)c2cc1OCCCN1CCOCC1` [gefitinib], the “suppression of PRL expression” value in assay [1] was about 50%. For the same molecule, in the assay with human prolactinoma cells [2] (setting [5]), the “suppression of PRL secretion into the culture medium” value is about 50%. Further, the “suppression of PRL secretion into the culture medium” value in the assay with human prolactinoma cells [2] (Tumor B, 0.01-10 μM) is given as about 40%. Further, the “suppression of PRL mRNA levels” value in the assay on human prolactinoma cells [3] (setting [5]) is given as “no effect”. For the same molecule, the “suppression of PRL mRNA levels” value with human prolactinoma cells [3] (Tumor B, 0.01-10 μM) was about 45%. In addition, the cell number entry in assay [4] is given as “decreased in a dose-dependent manner”. Also, in the assay on HER2CA GH3 tumors, the “suppression of postmortem tumor weight” value is listed as about 30%, the “suppression of serum PRL levels” value is recorded as about 40% and the HER2CA tumor volume is given as 695±63 mm^3.

Consider `CS(=O)(=O)CCNCc1ccc(-c2ccc3ncnc(Nc4ccc(OCc5cccc(F)c5)c(Cl)c4)c3c2)o1` [lapatinib, Lapatinib], for which, in assay [1] (HER2CA GH3 cells, 1 μM), the “PRL mRNA levels” value is reported as “more marked suppression”. Also, the “suppression of PRL expression” value in assay [1] is about 70%. The “suppression of PRL secretion into the culture medium” value with human prolactinoma cells [2] (setting [5]) was about 70%. Besides, the “suppression of PRL secretion into the culture medium” value in the assay on human prolactinoma cells [2] (Tumor B, 0.01-10 μM) is recorded as about 60%. The “suppression of human PRL secretion” value in the assay with human prolactinoma cells [2] (setting [6]) was about 70%. Further, in the assay on human prolactinoma cells [3] (setting [5]), the “suppression of PRL mRNA levels” value is on record as about 90%. Besides, the “suppression of PRL mRNA levels” value in the assay on human prolactinoma cells [3] (Tumor B, 0.01-10 μM) is reported as about 45%. Moreover, the “suppression of human PRL mRNA expression” value with human prolactinoma cells [3] (setting [6]) is on record as about 80%. In addition, the cell number entry in assay [4] is reported as “decreased in a dose-dependent manner”. Moreover, the “suppression of cell number, HER2 overexpressing vs pcDNA3 transfectants” value in assay [4] (pcDNA3 and HER2CA transfectants compared) was “enhanced in HER2 overexpressing transfectants”. Further, in the assay with HER2CA GH3 tumors, the “suppression of postmortem tumor weight” value is reported as about 40%, the “suppression of serum PRL levels” value was about 50% and the HER2CA tumor volume was 549±45 mm^3. In addition, the “change in Her2CA-GH3 tumor size” value in the assay on HER2CA GH3 tumors (rats, after one week of treatment) is −40%.

(Values after US20120308567A1, “USE OF TYROSINE KINASE INHIBITORS FOR TREATMENT OF PROLACTINOMA” (CEDARS-SINAI MEDICAL CENTER, priority 2010, published 2012).)
